According to US8663602B2, “Method for high-throughput screening of compounds and combinations of compounds for discovery and quantification of actions, particularly unanticipated therapeutic or toxic actions, in biological systems” (The Regents of the University of California, priority 2003, dated 2014):
“Also recorded” adds a separate entry of the source.

Tests used:
[1] = system: neurons; assay: Neuron turnover (fractional replacement) in mice by 2H2O labeling and GC/MS of DNA from isolated neurons; format: in vivo
Method: Groups of mice (n=5/group) were given a bolus of ^2H2O (Spectra Isotopes, Columbia, Md.) to 5% ^2H2O in body water and were given 8% ^2H2O as drinking water. Mice were maintained on ^2H2O for 45 days, during which period they also received injections every other day of either lipopolysaccharide (LPS) (Sigma, St. Louis, Mo.) in saline at a dose of 1 or 4 mg/kg body weight, or no injection.
Mice were euthanized with carbon dioxide, and their brains were removed. Hippocampi were dissected out, trypsinized, and stained with tetanus toxoid (Ttx), a specific marker for neurons, and then stained with a FITC labeled anti-Ttx antibody (Roche, Basel Switzerland). […]

[2] = system: neuroprogenitor cells; conditions: chronic exposure to LPS; Ekdahl et al. 2003; cited from earlier work
[3] = system: mammary epithelial cell; assay: Mammary epithelial cell (MEC) proliferation in intact and ovariectomized rats by 2H2O labeling, GC/MS; format: in vivo, Sprague-Dawley rats; conditions: for MEC proliferation: all doses, treated and labeled for 7 days, in the presence or absence of estrogen; for MEC proliferation rates: even the lowest dose; for mammary epithelial cell proliferation: intact female rats and ovariectomized rats, very low doses
[4] = Plasma liver enzymes in mice given griseofulvin; format: in vivo; conditions: 1% dose; data not shown
[5] = system: liver cell; assay: Liver cell proliferation in mice during griseofulvin administration (2H2O labeling); format: in vivo; conditions: 1% griseofulvin in chow (low dose, NOEL), 5 days
Method: Cell proliferation was measured as described, supra.

[6] = Food intake and body weight of mice on 2H2O; format: in vivo; conditions: 0.012 ml/gm injection then 4% 2H2O in drinking water
Method: Mice were injected with ^2H2O (deuterated water) 0.012 ml/gm. […] Twenty-one days following the start of ^2H2O administration, mice were fasted for four hours, anesthetized with isoflurane and exsanguinated via heart puncture.

[7] = Tolerability of maintained 2H2O body water enrichment; format: in vivo, humans; conditions: 1-10% of body water labeled, weeks or months; >100 people; rapid changes in enrichment prevented
Source text: Relatively high body water enrichments of ^2H2O (e.g., 1-10% of the total body water is labeled) may be achieved relatively inexpensively using the techniques of the invention. This water enrichment is relatively constant and stable as these levels are maintained for weeks or months in humans and in experimental animals without any evidence of toxicity. This finding in a large number of human subjects (>100 people) is contrary to previous concerns about vestibular toxicities at high doses of ^2H2O. The Applicant has discovered that as long as rapid changes in body water enrichment are prevented (e.g., by initial administration in small, divided doses), high body water enrichments of ^2H2O can be maintained with no toxicities. For example, the low cost of commercially available ^2H2O allows long-term maintenance of enrichments in the 1-5% range at relatively low expense (e.g., calculations reveal a lower cost for 2 months labeling at 2% ^2H2O enrichment, and thus 7-8% enrichment in the alanine precursor pool, than for 12 hours labeling of ^2H-leucine at 10% free leucine enrichment, and thus 7-8% enrichment in leucine precursor pool for that period).

[8] = system: adipocytes; assay: Adipocyte proliferation in ob/ob mice by 2H2O labeling of adipose cell DNA; format: in vivo; conditions: murine leptin 2 μg/day s.c. osmotic pump, 21 days 2H2O
Source text: Four week old, female, C57/bl6j mice (Jackson Labs Bar Harbor, […].) were studied: C57/bl6j ^+/? controls (con), ad libitum fed C57/bl6j^lep-/lep- (ob/ob), leptin treated ob/ob (ob-lep) and food restricted ob/ob (ob-r). Mice were housed individually in hanging wire cages and fed AIN 93 purified diets (Bio Serv, Frenchtown, N.J.). Mice were given 3 days to acclimate to the environment, after which mice grew normally. All treatments and interventions began 5 days prior to the start of labeling with ^2H2O.
Ob-lep mice received murine leptin subcutaneously at a dose of 2 μg/day (Amgen, Thousand Oaks Calif.) via a 28 day Alzet mini osmotic pump (Alza Corp. Palo Alto Calif.).
Mice were injected with ^2H2O (deuterated water) 0.012 ml/gm. […]
The frozen slurry of adipocytes was lyophilized, the dry weight of the sample was determined and then the samples were digested and DNA isolated as described elsewhere (Neese, R. A. et al. Advances in the Stable Isotope-Mass Spectrometric Measurement of DNA Synthesis and Cell Proliferation. Anal Biochem 298, 189-195. (2001)) using Quiagen DNeasy tissue kits. The yield of DNA from each sample was determined with a Pharmacia Biotec Genequant II spectrophotometer. […]
PTA samples were analyzed for incorporation of deuterium on a HP model 5973 MS with a 6890 GC and auto-sampler (Agilent, Palo Alto, Calif.). […]

Molecule: lipopolysaccharide [LPS]
- neuron turnover (fractional replacement of neurons) ([1]; LPS 1 or 4 mg/kg injected every other day, 45 days with 2H2O, vs control, p<0.05, dose dependent): statistically significant increase in neuron turnover; also recorded: turnover more rapidly
- calculated fractional synthesis rate (f) of new neurons ([1]; after exposure to LPS, control approximately 7%): ~14%
- neurogenesis [2]: neurogenesis was observed to decrease

Molecule: O=C(c1ccc(OCCN2CCCCC2)cc1)c1c(-c2ccc(O)cc2)sc2cc(O)ccc12 [raloxifene]
- MEC proliferation [3]: Significant reductions of MEC proliferation
- MEC proliferation rates [3]: efficacious anti-proliferative agents
- mammary epithelial cell proliferation [3]: decrease in mammary epithelial cell proliferation

Molecule: COC1=CC(=O)C[C@@H](C)[C@]12Oc1c(Cl)c(OC)cc(OC)c1C2=O [griseofulvin]
- plasma liver enzymes [4]: did not induce elevated levels of plasma liver enzymes
- liver cell proliferation [5]: increased liver cell proliferation

Molecule: [2H]O[2H] [^2H2O, deuterated water]
- food intake or body weight [6]: no impact on food intake or body weight
- toxicity of maintained body water enrichment [7]: no toxicities

Molecule: CC/C(=C(\c1ccccc1)c1ccc(OCCN(C)C)cc1)c1ccccc1 [tamoxifen]
- MEC proliferation [3]: Significant reductions of MEC proliferation
- MEC proliferation rates [3]: efficacious anti-proliferative agents
- mammary epithelial cell proliferation [3]: decrease in mammary epithelial cell proliferation

B1: leptin: murine leptin (Amgen) given subcutaneously via osmotic pump (protein, UniProt P41160 22-167, looked up)
Leptin: VPIQKVQDDTKTLIKTIVTRINDISHTQSVSAKQRVTGLDFIPGLHPILSLSKMDQTLAVYQQVLTSLPSQNVLQIANDLENLRDLLHLLAFSKSCSLPQTSGLQKPESLDGVLEASLYSTEVVALSRLQGSLQDILQQLDVSPEC
- adipocyte proliferation (fat cell proliferation) [8]: decrease in adipocyte proliferation
